Each structure is given as a SMILES string.

A short description of this data set: gradient 5% acetonitrile 3 min, to 50% in 2 min, to 85% in 15 min, held 3 min, 100 µL/min. As to conditions: column: Zorbax Extend-C18 2.1 x 50 mm; eluents: water / acetonitrile, 0.1% formic acid. The procedure, abridged: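 Each retention time is based on an adduct peak selected computationally and verified by manual inspection. Measurements used HPLC–quadrupole time-of-flight mass spectrometry in positive and negative ionization mode on mixtures of ~100 pure standards. Chromatography ran on a Zorbax Extend-C18 column (2.1 × 50 mm, 1.8 μm) at 100 μL/min with water and acetonitrile, each containing 0.1% formic acid, and dead and dwell volumes of 40 μL and 900 μL.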
The molecule `CC(C(=O)NCCCN1CCOCC1)n1c(=O)c(C(F)(F)F)nc2ccccc21` (centres undefined) gave an RP-LC retention time of 644 s.
With `Cc1cccc(NC(=O)C2CCc3sc(C(=O)N(C)C)cc3C2)c1` (centres undefined) the figure was 846 s; with `O=C(NCc1ccccc1)Nc1cccn2ncnc12`, 702 s; with `CCCCOc1ccc(S(=O)(=O)N2CCN(c3nc(C)cc(N4CCOCC4)n3)CC2)cc1`, 818 s.
As for `Cc1noc(-c2nn(C)c3c2CN(C(=O)COc2ccc(Cl)cc2)CC3)n1`, the figure is 791 s.
Molecule `CCc1ccc(CNC(=O)CC2CCN(C(=O)c3[nH]c(C)c(C)c3C)CC2)cc1` showed an RP-LC retention time of 898 s.
As to `CN1CCCn2cc(S(=O)(=O)Nc3ccc4c(c3)OCCO4)cc2C1=O`, the RP-LC retention time stood at 655 s.
For `Cn1cnc(S(=O)(=O)N2CC(N(Cc3ccccc3)C3CCOCC3)C2)c1`, the RP-LC retention time amounted to 600 s.
With `Cc1[nH]nc(-c2ccc(S(=O)(=O)NCCc3ccc(S(N)(=O)=O)cc3)o2)c1C` the figure was 697 s; with `Cc1ccc(-n2nc(C(=O)N3CCN(c4ccccn4)CC3)c3c4ccccc4n(C)c3c2=O)cc1`, 705 s; with `O=C(NCCCN1CCCc2ccccc21)C1CCc2nc(N3CCCCC3)ncc2C1` (centres undefined), 827 s.
With `Cc1cccn2cc(-c3cccc(S(=O)(=O)N4CC(C)OC(C)C4)c3)nc12` (centres undefined) the figure was 671 s; with `COc1ccccc1-c1nnc(-c2cccc(S(=O)(=O)N3CCOCC3)c2)o1`, 802 s.
`CCOc1ccc(C(C)NC(=O)C2c3ccccc3CCN2C(=O)C2CC2)cc1` (centres undefined) gave an RP-LC retention time of 907 s.
For the molecule `Cc1ccc(-n2c(=O)c3c(cc(C)n3C)n(CC(=O)Nc3c(C)cccc3C)c2=O)cc1`, the RP-LC retention time was determined as 912 s.
Molecule `Cc1ccc(C)c(NC(=O)c2cc(C)nn2-c2ccccc2)c1` gave an RP-LC retention time of 916 s.
In the case of `COCc1nc(C2CCN(C(=O)C3CC3)C2)no1` (centres undefined), the RP-LC retention time was 626 s.
For `O=C(NCc1cccnc1)c1nc(CCS(=O)(=O)c2ccccc2)no1`, the RP-LC retention time was determined as 593 s.
With `COc1cccc(Nc2c(C(N)=O)cnc3c(C)cc(S(=O)(=O)c4cccc(C(=O)N(C)C)c4)cc23)c1` the figure was 683 s.
With `CCCCN(C)c1ncc(C(=O)NCc2ccccc2)c(N)n1`, the RP-LC retention time is 690 s.
The molecule `CCOc1ccc(-c2noc(CN3C(=O)COc4ccccc43)n2)cc1OC` returned an RP-LC retention time of 968 s.
`CCOC(=O)c1ccccc1NC(=O)Cn1c(=O)c(CCC(=O)NC2CCCC2)nc2ccccc21` yielded an RP-LC retention time of 1130 s.
With `CC(C)CC(=O)N1CCN(c2nc3ccccc3n(CC(C)C)c2=O)CC1` the figure was 1080 s; with `O=C(Nc1ccc2nc(N3CCC(N4CCCCC4)CC3)cc(C(=O)O)c2c1)c1cccc(Cl)c1`, 601 s.
With `Cc1noc(-c2nn(C)c3c2CN(C(=O)Cc2ccc(Cl)cc2)CC3)n1` the figure was 762 s; with `CCc1c(C2CCN(C(=O)c3cc(C)on3)CC2)noc1N`, 669 s; with `Cc1cccc(NC(=O)N2CCc3nc(-c4ccccc4)ncc3C2)c1C`, 901 s.
With `CC(C)(C)OC(=O)Cn1nc2ccc(S(=O)(=O)N3CCSCC3)cn2c1=O` the figure was 888 s; with `Cc1cc(C)cc(-n2ccn(Cc3nc(-c4ccc(C(C)(C)C)cc4)no3)c(=O)c2=O)c1`, 1130 s.
As to `CCS(=O)(=O)N1CCCc2cc(C(=O)Nc3ccccc3Br)ccc21`, the RP-LC retention time was found to be 986 s.
As to `O=C(c1cccs1)N(Cc1ccco1)c1nc2c(F)cc(F)cc2s1`, the RP-LC retention time was 1160 s.
With `CCOc1ccc(CNC(=O)c2cc3c(=O)n(CC)c4ccccc4n3n2)cc1OC` the figure was 1180 s; with `CCn1c(N2CCCC(C(=O)NCCCN3CCCc4ccccc43)C2)cc(=O)n(C)c1=O` (centres undefined), 847 s.
`COc1ccc(Cl)cc1NC(=O)N1CCCC1c1nc(-c2ccccc2)no1` (centres undefined) had an RP-LC retention time of 1140 s.
With `CN(CCc1noc(COc2ccc(Cl)cc2)n1)C(=O)Nc1cccc(F)c1` the figure was 984 s; with `CCOC(=O)C1=C(C)NC2=C(C(=O)c3ccccc32)C1c1cccc(OC)c1OC` (centres undefined), 902 s; with `Cc1nc2cc3c(cc2n1CC(=O)NCC1CCCO1)OCCO3` (centres undefined), 567 s.
As for `CCOC(=O)CNC(=O)N1CCN(Cc2nc3cccnc3n2-c2cccc(F)c2)CC1`, the figure is 612 s.
As for `Cc1ccc2c(c1)OCC(=O)N2Cc1nc(-c2ccccc2C)no1`, the figure is 1120 s.
On to `O=C(Nc1ccc(C(F)(F)F)cc1)Nc1cccc(-c2nccnc2N2CCOCC2)c1`, for which the RP-LC retention time was found to be 956 s.
`CSc1ccc(CNC(=O)Cn2cc(-c3nnco3)c3ccccc32)cc1`: the RP-LC retention time was 805 s.
Molecule `Cc1cc(C)c(C)c(S(=O)(=O)N(C)C)c1C` yielded an RP-LC retention time of 939 s.
With `COc1cc(NC(=O)CN2C(=O)C(C)(C)c3ccccc32)cc(OC)c1OC` the figure was 784 s.
The molecule `CCCc1noc(-c2cccnc2N2CCCN(Cc3ccccc3C)CC2)n1` returned an RP-LC retention time of 740 s.
With `CCn1cc(C(=O)Nc2cc(OC)cc(OC)c2)c(S(=O)(=O)N2CCSCC2)n1` the figure was 992 s; with `COc1ccc(CN2C(=O)COC[C@H]2C(=O)NCc2ccco2)c(OC)c1`, 704 s.
In turn, `CC1CCCCN1CCN(CCC(=O)N1CCNCC1)C(=O)c1ccc(C(C)(C)C)cc1` (centres undefined) displayed an RP-LC retention time of 593 s.
Molecule `COCCN1C(=O)Cc2ccccc2C1C(=O)N1CCN(c2ccccc2Cl)CC1` (centres undefined) yielded an RP-LC retention time of 904 s.
`CCOC(=O)c1c(C)n(CC(=O)OC)c2ccc(OC)cc12` yielded an RP-LC retention time of 904 s.
As for `COc1cccc(NC(=O)NCC(c2cccnc2)c2c[nH]c3ccccc23)c1` (centres undefined), the figure is 662 s; as for `COc1cccc(Cn2c(=O)c3sccc3n(Cc3nc(-c4cccc(OC)c4)no3)c2=O)c1`, 1080 s.
On to `CCn1nc(C)c(CCNC(=O)c2cc3c(=O)n(CCOC)ccc3nc2C)c1C`, for which the RP-LC retention time came out at 576 s.
For the molecule `CCc1ccccc1S(=O)(=O)N1CCC(N2CCN(Cc3ccc(C)cc3)C(=O)C2=O)CC1`, the RP-LC retention time came to 955 s.
As for `N#Cc1nnn(-c2ccc(Cl)cc2)c1N`, the figure is 816 s; as for `COc1ccc(NC(=O)C2CCCN(c3cnc4nccnc4c3)C2)cc1F` (centres undefined), 726 s; as for `Cc1ccc(Cn2c(CN3CC(C)OC(C)C3)nc3c2c(=O)n(C)c(=O)n3C)cc1` (centres undefined), 700 s.
`CC(C)Cc1ccc(S(=O)(=O)N2CCc3c(c(CN4CCN(C)CC4)nn3C)C2)cc1` had an RP-LC retention time of 687 s.
With `Cc1nn(CC(=O)N(C)Cc2ccco2)c(=O)c2c(C)n(-c3ccccc3)nc12` the figure was 820 s; with `O=C(NCCc1ccccc1)NC1CCCN(c2cc(-c3ccncc3)[nH]n2)C1` (centres undefined), 620 s.
As to `CCOC(=O)c1cc(C2CC2)nc2c1c(=O)n(Cc1cccc(Br)c1)c(=O)n2C`, the RP-LC retention time is 1280 s.
`CN1c2cc(C(=O)NCc3ccc(F)cc3Cl)ccc2C(=O)N2CCCCC21` (centres undefined) gave an RP-LC retention time of 833 s.
With `Cc1ccc(NC(=O)N2C[C@H](c3nc(-c4ccncc4)no3)[C@@H](C)C2)cc1` the figure was 795 s; with `CCc1nc(OCC(=O)Nc2cc(OC)ccc2OC)c2ccccc2n1`, 821 s; with `COC(=O)c1cccc(Nc2c(-c3ccc(N4CCOCC4)cc3)nc3cnccn23)c1`, 754 s.
As for `CCc1cc(C(=O)N2CCN(CC(C)C)CC2)nc2cc(-c3ccccn3)nn12`, the figure is 610 s; as for `CCC(C)NC(=O)Nc1cc2c(cc1Oc1ccccc1)n(C)c(=O)n2C` (centres undefined), 853 s.
Regarding `CCOc1ccc(NC(=O)Cn2c(-c3cnccn3)nc(C)c(C)c2=O)cc1`, the RP-LC retention time came out at 735 s.
With `O=C(CSc1ccc(N2CCCC(C(=O)NC3CC3)C2)nn1)NCc1cccc(C(F)(F)F)c1` (centres undefined) the figure was 678 s; with `Cc1nnc2ccc(N3CCN(C(=O)COc4ccc5c(c4)OCO5)CC3)nn12`, 617 s; with `Clc1ccc(-c2ccc(CNC3CC3)o2)c(Cl)c1`, 716 s.
As for `CCOc1ccccc1NC(=O)Cn1nc2n(c1=O)CCCC2`, the figure is 655 s.
Molecule `Cc1ccc(NC(=O)CN2C(=O)NC(c3ccccc3Cl)C3=C2COC3=O)cc1C` (centres undefined) gave an RP-LC retention time of 819 s.
As for `COc1ccc(-c2noc(N3CCC(C(=O)N4CCN(C5CCCCC5)CC4)CC3)n2)cc1OC`, the figure is 632 s.
`O=C(NC1CCN(c2cc(-c3ccc(F)cc3)[nH]n2)C1)c1ccc(F)cc1F` (centres undefined) registered an RP-LC retention time of 736 s.
`O=C(Nc1ccc(F)c(F)c1)C1CCN(C(=O)c2ncn3c2COC(c2ccccc2)C3)CC1` (centres undefined) yielded an RP-LC retention time of 819 s.
In turn, `COc1ccc2nc(C(=O)NCc3ccc(Br)cc3)cn2n1` yielded an RP-LC retention time of 879 s.
As for `CC(=O)Nc1ccc(NC(=O)CN2C(=O)C3CCCCN3C(=O)c3ccccc32)cc1` (centres undefined), the figure is 651 s.
As for `CCN1C(=O)COc2cc(-c3noc(C(=O)NC4CCCC4)n3)ccc21`, the figure is 936 s; as for `Cc1ccc(C(=O)N2CCN(c3nnc4ccccn34)CC2)cc1C`, 676 s.

Values taken from the METLIN SMRT retention time set (Domingo-Almenara et al. 2019).
